Test results taken from paper PMC2709467, “Synthesis of Novel 3-Aryl-N-Methyl-1,2,5,6-Tetrahydropyridine Derivatives by Suzuki coupling: As Acetyl Cholinesterase Inhibitors” (The Open Medicinal Chemistry Journal, 2007).
Where two headings read alike, the source gives them in different places.

Legend:
Electric eel AChE = biological target: T1, Electric eel AChE (Electrophorus electricus, UniProt O42275); assay: Ellman assay, […] nm; format: biochemical
T1 construct: native commercial enzyme from Sigma, no further details

Human Serum AChE = test system: T2, Human Serum AChE; assay: Ellman assay, […] nm; format: biochemical; conditions: acetylthiocholine iodide substrate, phosphate buffer pH 8.0, 37 °C, 10 min preincubation
T2 construct: crude supernatant of citrated fresh blood (plasma), not purified

[1] = acetylthiocholine iodide substrate, phosphate buffer pH 8.0, 37 °C, 10 min preincubation; read-out: Electric eel AChE, IC50 nM

T1 sequence (O42275 24-633): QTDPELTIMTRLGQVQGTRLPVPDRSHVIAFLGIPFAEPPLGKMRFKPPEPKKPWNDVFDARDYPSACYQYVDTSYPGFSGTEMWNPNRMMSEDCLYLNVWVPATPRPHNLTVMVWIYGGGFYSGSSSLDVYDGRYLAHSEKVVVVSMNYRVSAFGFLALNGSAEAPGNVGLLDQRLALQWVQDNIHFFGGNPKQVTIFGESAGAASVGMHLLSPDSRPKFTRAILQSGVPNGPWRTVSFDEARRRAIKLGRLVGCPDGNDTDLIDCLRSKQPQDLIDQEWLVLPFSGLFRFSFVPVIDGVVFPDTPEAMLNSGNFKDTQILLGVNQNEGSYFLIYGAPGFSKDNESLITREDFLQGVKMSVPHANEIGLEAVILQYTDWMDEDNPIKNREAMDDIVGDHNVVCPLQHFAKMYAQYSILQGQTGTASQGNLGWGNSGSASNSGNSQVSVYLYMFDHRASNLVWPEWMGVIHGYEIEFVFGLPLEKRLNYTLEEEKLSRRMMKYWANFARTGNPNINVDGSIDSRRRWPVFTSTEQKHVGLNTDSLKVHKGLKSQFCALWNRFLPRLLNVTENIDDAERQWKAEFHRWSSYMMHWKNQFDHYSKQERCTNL

Row | SMILES | IC50 (Electric eel AChE; [1]) | IC50 (Human Serum AChE) | IC50 (Electric eel AChE; read-out: Electric eel AChE, IC50 nM; acetylthiocholine iodide substrate, phosphate buffer pH 8.0, 37 °C, 10 min preincubation)
1 | CN1CCC=C(c2ccc(C(F)(F)F)cc2)C1 [5a, 3-[4-(trifluoromethyl)phenyl]-1,2,5,6-tetrahydro-1-methylpyridine] | 49.5 nM | 52 nM | –
2 | CN1CCC=C(c2ccc(C#N)cc2)C1 [5b, 3-(4-cyanophenyl)-1,2,5,6-tetrahydro-1-methylpyridine] | 64 nM | 68 nM | –
3 | CN1CCC=C(c2ccc(Cl)cc2)C1 [5d, 3-(4-chlorophenyl)-1,2,5,6-tetrahydro-1-methylpyridine] | 806 nM | 784 nM | –
4 | COc1ccc(C2=CCCN(C)C2)cc1 [5e, 3-(4-methoxyphenyl)-1,2,5,6-tetrahydro-1-methylpyridine] | – | 2880 nM | –
5 | CN1CCC=C(c2c(Cl)cccc2Cl)C1 [5f, 3-(2,6-dichlorophenyl)-1,2,5,6-tetrahydro-1-methylpyridine] | 678 nM | 729 nM | –
6 | CN1CCC=C(c2ccc(Oc3ccccc3)cc2)C1 [5g, 3-(4-phenoxyphenyl)-1,2,5,6-tetrahydro-1-methylpyridine] | 1230 nM | 1350 nM | –
7 | CN1CCC=C(c2ccc(-c3ccccc3)c(F)c2)C1 [5h, 3-(2-fluoro-biphenyl-4-yl)-1-methyl-1,2,5,6-tetrahydropyridine] | 118 nM | 116 nM | –
8 | CCOc1cccc(C2=CCCN(C)C2)c1 [5j, 3-(3-ethoxyphenyl)-1,2,5,6-tetrahydro-1-methylpyridine] | 1230 nM | 1220 nM | –
9 | CN1CCC=C(c2cccc(Cl)c2F)C1 [5k, 3-(3-chloro-2-fluoro-phenyl)-1-methyl-1,2,5,6-tetrahydropyridine] | 182 nM | 170 nM | –
10 | CN(C)C(=O)Oc1cccc([N+](C)(C)C)c1 [Neostigmine, reference compound] | – | 39.2 nM | 36.5 nM
